Source: PMC5453487, “Targeting YAP/TAZ-TEAD protein-protein interactions using fragment-based and computational modeling approaches” (PLoS ONE, 2017)

Target: mouse TEAD4 (mTEAD4) (Mus musculus, UniProt Q62296)
Test: X-ray co-crystal structure ([…] Å), ITC; also thermal shift assay and MST ([…])
Format: binding

mouse TEAD4 (mTEAD4), sequence (Q62296 210-427): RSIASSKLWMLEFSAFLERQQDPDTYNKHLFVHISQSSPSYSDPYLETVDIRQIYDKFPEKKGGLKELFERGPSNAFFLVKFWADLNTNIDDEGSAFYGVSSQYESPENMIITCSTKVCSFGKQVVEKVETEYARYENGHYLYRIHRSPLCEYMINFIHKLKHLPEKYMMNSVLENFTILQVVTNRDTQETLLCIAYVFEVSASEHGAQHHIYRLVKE

Kd: ~300 µM
Compound: O=C(O)C(c1ccccc1)n1cccc1 (stereo not shown) [compound 1, fragment 1]
